Measurements published in US20240261224A1, “FORMULATION OF A PAN-JAK INHIBITOR” (KINASET THERAPEUTICS, INC., priority 2022, published 2024).
Like-named read-outs stand apart in the source and are kept apart here.

Assay: Phase 1 Part 2 plasma pharmacokinetics (mild asthma)
Type: in vivo, human
Settings: for AUC0-12 hours Max / AUC0-12 hours Min / AUC0-24 hours Max / AUC0-24 hours Min / AUC0-last non-zero Max / AUC0-last non-zero Min / AUC0-∞ Max / AUC0-∞ Min / AUCover dosing interval Max / AUCover dosing interval Min / Cmax Max / Cmax Min / Ctrough Geometric mean / Ctrough Max / Ctrough Mean / Ctrough Min: Day 10; for AUC0-12h / AUC(0-t) / AUC(0-inf) / AUC / Cmax: human, plasma, inhaled
Description: Day 10 pharmacokinetic parameters for Parts 2 and 3 of Phase I are summarized below in Table 28. Part 2 involved the administration of 4 different dose regimens, to subjects with mild asthma naïve to ICS therapy, over a 10-day period. Each separate cohort comprised 6 subjects receiving active treatment with 2 receiving matching placebo. Blood samples were collected to enable the measurement of Compound I concentrations in plasma. The resultant data was used to determine the PK parameters at Day 10 representing the Day on which the final dose was received.

Compound: Cn1c(=O)n([C@H]2CCCN(C(=O)CC#N)C2)c2nc(-c3cnn4ccccc34)ccc21 [Compound I, (S)-3-(3-(1-methyl-2-oxo-5-(pyrazolo[1,5-a]pyridine-3-yl)-1H-imidazo[4,5-b]pyridine-3(2H)-yl)piperidin-1-yl)-3-oxopropanenitrile]
- AUC0-12 hours Max (0.6 mg QD): 23,507 pg · h/ml
- AUC0-12 hours Min (0.6 mg QD): 7,596 pg · h/ml
- AUC0-24 hours Max (0.6 mg QD): 36,466 pg · h/ml
- AUC0-24 hours Min (0.6 mg QD): 8,579 pg · h/ml
- AUC0-last non-zero Max (0.6 mg QD): 47,928 pg · h/ml
- AUC0-last non-zero Min (0.6 mg QD): 8,579 pg · h/ml
- AUC0-∞ Max (0.6 mg QD): 52,842 pg · h/ml
- AUC0-∞ Min (0.6 mg QD): 8,783 pg · h/ml
- AUCover dosing interval Max (0.6 mg QD): 36,466 pg · h/ml
- AUCover dosing interval Min (0.6 mg QD): 8,579 pg · h/ml
- Cmax Max (0.6 mg QD): 2,750 pg/ml
- Cmax Min (0.6 mg QD): 1,020 pg/ml
- Ctrough Geometric mean (0.6 mg QD): 234 pg/mL
- Ctrough Max (0.6 mg QD): 913 pg/mL
- Ctrough Mean (0.6 mg QD): 362 pg/mL
- Ctrough Min (0.6 mg QD): 34 pg/mL
- AUC0-12 hours Max (2 mg QD): 88,203 pg · h/ml
- AUC0-12 hours Min (2 mg QD): 30,807 pg · h/ml
- AUC0-24 hours Max (2 mg QD): 125,837 pg · h/ml
- AUC0-24 hours Min (2 mg QD): 42,693 pg · h/ml
- AUC0-last non-zero Max (2 mg QD): 143,585 pg · h/ml
- AUC0-last non-zero Min (2 mg QD): 48,931 pg · h/ml
- AUC0-∞ Max (2 mg QD): 145,552 pg · h/ml
- AUC0-∞ Min (2 mg QD): 50,025 pg · h/ml
- AUCover dosing interval Max (2 mg QD): 125,837 pg · h/ml
- AUCover dosing interval Min (2 mg QD): 42,693 pg · h/ml
- Cmax Max (2 mg QD): 9,630 pg/ml
- Cmax Min (2 mg QD): 4,160 pg/ml
- Ctrough Geometric mean (2 mg QD): 929 pg/mL
- Ctrough Max (2 mg QD): 1,370 pg/ml
- Ctrough Mean (2 mg QD): 970 pg/mL
- Ctrough Min (2 mg QD): 536 pg/mL
- AUC0-12 hours Max (4 mg BID): 373,995 pg · h/ml
- AUC0-12 hours Min (4 mg BID): 39,111 pg · h/ml
- AUC0-24 hours Max (4 mg BID): 473,634 pg · h/ml
- AUC0-24 hours Min (4 mg BID): 43,350 pg · h/ml
- AUC0-last non-zero Max (4 mg BID): 586,513 pg · h/ml
- AUC0-last non-zero Min (4 mg BID): 43,356 pg · h/ml
- AUC0-∞ Max (4 mg BID): 587,424 pg · h/ml
- AUC0-∞ Min (4 mg BID): 44,654 pg · h/ml
- AUCover dosing interval Max (4 mg BID): 373,995 pg · h/ml
- AUCover dosing interval Min (4 mg BID): 39,111 pg · h/ml
- Cmax Max (4 mg BID): 47,800 pg/ml
- Cmax Min (4 mg BID): 7,750 pg/ml
- Ctrough Geometric mean (4 mg BID): 6,983 pg/ml
- Ctrough Max (4 mg BID): 15,600 pg/ml
- Ctrough Mean (4 mg BID): 10,001 pg/ml
- Ctrough Min (4 mg BID): 563 pg/mL
- AUC0-12 hours Max (8 mg BID): 830,085 pg · h/ml
- AUC0-12 hours Min (8 mg BID): 260,305 pg · h/ml
- AUC0-24 hours Max (8 mg BID): 1,140,247 pg · h/ml
- AUC0-24 hours Min (8 mg BID): 309,050 pg · h/ml
- AUC0-last non-zero Max (8 mg BID): 1,369,314 pg · h/ml
- AUC0-last non-zero Min (8 mg BID): 358,137 pg · h/ml
- AUC0-∞ Max (8 mg BID): 1,369,630 pg · h/ml
- AUC0-∞ Min (8 mg BID): 358,998 pg · h/ml
- AUCover dosing interval Max (8 mg BID): 830,085 pg · h/ml
- AUCover dosing interval Min (8 mg BID): 260,305 pg · h/ml
- Cmax Max (8 mg BID): 91,500 pg/ml
- Cmax Min (8 mg BID): 45,400 pg/ml
- Ctrough Geometric mean (8 mg BID): 17,666 pg/ml
- Ctrough Max (8 mg BID): 40,600 pg/ml
- Ctrough Mean (8 mg BID): 21,835 pg/ml
- Ctrough Min (8 mg BID): 6,090 pg/ml
- AUC0-12h (0.6 mg, 0.6 mg QD, Day 10, read-out: AUC0-12 hours Geometric mean): 14.9 ng·h/mL
- AUC0-12h (0.6 mg, 0.6 mg QD, Day 10, read-out: AUC0-12 hours Mean): 16.1 ng·h/mL
- AUC(0-t) (0.6 mg, 0.6 mg QD, Day 10, read-out: AUC0-24 hours Geometric mean): 20.3 ng·h/mL
- AUC(0-t) (0.6 mg, 0.6 mg QD, Day 10, read-out: AUC0-24 hours Mean): 22.5 ng·h/mL
- AUC(0-t) (0.6 mg, 0.6 mg QD, Day 10, read-out: AUC0-last non-zero Geometric mean): 23.4 ng·h/mL
- AUC(0-t) (0.6 mg, 0.6 mg QD, Day 10, read-out: AUC0-last non-zero Mean): 26.7 ng·h/mL
- AUC(0-inf) (0.6 mg, 0.6 mg QD, Day 10, read-out: AUC0-∞ Geometric mean): 24.3 ng·h/mL
- AUC(0-inf) (0.6 mg, 0.6 mg QD, Day 10, read-out: AUC0-∞ Mean): 28 ng·h/mL
- AUC (0.6 mg, 0.6 mg QD, Day 10, read-out: AUCover dosing interval Geometric mean): 20.3 ng·h/mL
- AUC (0.6 mg, 0.6 mg QD, Day 10, read-out: AUCover dosing interval Mean): 22.5 ng·h/mL
- Cmax (0.6 mg, 0.6 mg QD, Day 10, read-out: Cmax Geometric mean): 1.86 ng/mL
- Cmax (0.6 mg, 0.6 mg QD, Day 10, read-out: Cmax Mean): 1.97 ng/mL
- AUC0-12h (2 mg, 2 mg QD, Day 10, read-out: AUC0-12 hours Geometric mean): 51.9 ng·h/mL
- AUC0-12h (2 mg, 2 mg QD, Day 10, read-out: AUC0-12 hours Mean): 55.2 ng·h/mL
- AUC(0-t) (2 mg, 2 mg QD, Day 10, read-out: AUC0-24 hours Geometric mean): 71.9 ng·h/mL
- AUC(0-t) (2 mg, 2 mg QD, Day 10, read-out: AUC0-24 hours Mean): 76.4 ng·h/mL
- AUC(0-t) (2 mg, 2 mg QD, Day 10, read-out: AUC0-last non-zero Geometric mean): 82.2 ng·h/mL
- AUC(0-t) (2 mg, 2 mg QD, Day 10, read-out: AUC0-last non-zero Mean): 87.4 ng·h/mL
- AUC(0-inf) (2 mg, 2 mg QD, Day 10, read-out: AUC0-∞ Geometric mean): 83.9 ng·h/mL
- AUC(0-inf) (2 mg, 2 mg QD, Day 10, read-out: AUC0-∞ Mean): 89.2 ng·h/mL
- AUC (2 mg, 2 mg QD, Day 10, read-out: AUCover dosing interval Geometric mean): 71.9 ng·h/mL
- AUC (2 mg, 2 mg QD, Day 10, read-out: AUCover dosing interval Mean): 76.4 ng·h/mL
- Cmax (2 mg, 2 mg QD, Day 10, read-out: Cmax Geometric mean): 6.19 ng/mL
- Cmax (2 mg, 2 mg QD, Day 10, read-out: Cmax Mean): 6.46 ng/mL
- AUC0-12h (4 mg, 4 mg BID, Day 10, read-out: AUC0-12 hours Geometric mean): 194 ng·h/mL
- AUC0-12h (4 mg, 4 mg BID, Day 10, read-out: AUC0-12 hours Mean): 237 ng·h/mL
- AUC(0-t) (4 mg, 4 mg BID, Day 10, read-out: AUC0-24 hours Geometric mean): 241 ng·h/mL
- AUC(0-t) (4 mg, 4 mg BID, Day 10, read-out: AUC0-24 hours Mean): 299 ng·h/mL
- AUC(0-t) (4 mg, 4 mg BID, Day 10, read-out: AUC0-last non-zero Geometric mean): 278 ng·h/mL
- AUC(0-t) (4 mg, 4 mg BID, Day 10, read-out: AUC0-last non-zero Mean): 355 ng·h/mL
- AUC(0-inf) (4 mg, 4 mg BID, Day 10, read-out: AUC0-∞ Geometric mean): 282 ng·h/mL
- AUC(0-inf) (4 mg, 4 mg BID, Day 10, read-out: AUC0-∞ Mean): 359 ng·h/mL
- AUC (4 mg, 4 mg BID, Day 10, read-out: AUCover dosing interval Geometric mean): 194 ng·h/mL
- AUC (4 mg, 4 mg BID, Day 10, read-out: AUCover dosing interval Mean): 237 ng·h/mL
- Cmax (4 mg, 4 mg BID, Day 10, read-out: Cmax Geometric mean): 26.8 ng/mL
- Cmax (4 mg, 4 mg BID, Day 10, read-out: Cmax Mean): 31.5 ng/mL
- AUC0-12h (8 mg, 8 mg BID, Day 10, read-out: AUC0-12 hours Geometric mean): 418 ng·h/mL
- AUC0-12h (8 mg, 8 mg BID, Day 10, read-out: AUC0-12 hours Mean): 458 ng·h/mL
- AUC(0-t) (8 mg, 8 mg BID, Day 10, read-out: AUC0-24 hours Geometric mean): 545 ng·h/mL
- AUC(0-t) (8 mg, 8 mg BID, Day 10, read-out: AUC0-24 hours Mean): 612 ng·h/mL
- AUC(0-t) (8 mg, 8 mg BID, Day 10, read-out: AUC0-last non-zero Geometric mean): 662 ng·h/mL
- AUC(0-t) (8 mg, 8 mg BID, Day 10, read-out: AUC0-last non-zero Mean): 745 ng·h/mL
- AUC(0-inf) (8 mg, 8 mg BID, Day 10, read-out: AUC0-∞ Geometric mean): 664 ng·h/mL
- AUC(0-inf) (8 mg, 8 mg BID, Day 10, read-out: AUC0-∞ Mean): 747 ng·h/mL
- AUC (8 mg, 8 mg BID, Day 10, read-out: AUCover dosing interval Geometric mean): 418 ng·h/mL
- AUC (8 mg, 8 mg BID, Day 10, read-out: AUCover dosing interval Mean): 458 ng·h/mL
- Cmax (8 mg, 8 mg BID, Day 10, read-out: Cmax Geometric mean): 57.7 ng/mL
- Cmax (8 mg, 8 mg BID, Day 10, read-out: Cmax Mean): 60.4 ng/mL
